Source: US20070179060A1, “6-(Poly-substituted aryl)-4-aminopicolinates and their use as herbicides” (priority 2006, published 2007)

Key:
[1] = tested on: redroot pigweed (Amaranthus retroflexus); test: Postemergence herbicidal activity; type: in vivo; settings: Amaranthus retroflexus, post-emergence, 336 h, post-emergent, 140 g ai/ha, after 14 days; read-out: % Control AMARE
Experimental: (§1) Seeds or nutlets of the desired test plant species were planted in Sun Gro MetroMix® 306 planting mixture, which typically has a pH of 6.0 to 6.8 and an organic matter content of about 30 percent, in plastic pots with a surface area of 64 square centimeters. When required to ensure good germination and healthy plants, a fungicide treatment and/or other chemical or physical treatment was applied. The plants were grown for 7-21 days in a greenhouse with an approximate 15 hour photoperiod which was maintained at about 23-29° C. during the day and 22-28° C. during the night. Nutrients and water were added on a regular basis and supplemental lighting was provided with overhead metal halide 1000-Watt lamps as necessary. The plants were employed for testing when they reached the first or second true leaf stage. […] The concentrated stock solutions obtained were diluted with 20 mL of an aqueous mixture containing acetone, water, isopropyl alcohol, DMSO, Atplus 411F crop oil concentrate, and Triton® X-155 surfactant in a 48.5:39:10:1.5:1.0:0.02 v/v ratio to obtain spray solutions containing the highest application rates. […] Compound requirements are based upon a 12 mL application volume at a rate of 187 L/ha. Formulated compounds were applied to the plant material with an overhead Mandel track sprayer equipped with a […] nozzles calibrated to deliver 187 L/ha over an application area of 0.503 square meters at a spray height of 18 inches (43 cm) above the average plant canopy height. Control plants were sprayed in the same manner with the solvent blank. The treated plants and control plants were placed in a greenhouse as described above and watered by sub-irrigation to prevent wash-off of the test compounds. […] By applying the well-accepted probit analysis as described by J. Berkson in Journal of the American Statistical […], 48, 565 (1953) and by D.

[2] = tested on: velvetleaf (Abutilon theophrasti); test: Postemergence herbicidal activity; type: in vivo; settings: Abutilon theophrasti, post-emergence, 336 h, post-emergent, 140 g ai/ha, after 14 days; read-out: % Control ABUTH
Experimental: as §1

[3] = tested on: lambsquarter (Chenopodium album); test: Postemergence herbicidal activity; type: in vivo; settings: Chenopodium album, post-emergence, 336 h, post-emergent, 140 g ai/ha, after 14 days; read-out: % Control CHEAL
Experimental: as §1

[4] = tested on: redroot pigweed (Amaranthus retroflexus); test: Preemergence herbicidal activity; type: in vivo; settings: pre-emergent, 140 g ai/ha, after 20-22 days
Source text: (§2) Seeds of the desired test plant species were planted in a soil matrix prepared by mixing a loam soil (43 percent silt, 19 percent clay, and 38 percent sand, with a pH of about 8.1 and an organic matter content of about 1.5 percent) and sand in a 70 to 30 ratio. The soil matrix was contained in plastic pots with a surface area of 113 square centimeters. When required to ensure good germination and healthy plants, a fungicide treatment and/or other chemical or physical treatment was applied. […] Compound requirements are based upon a 12 mL application volume at a rate of 187 L/ha. Formulated compounds were applied to the plant material with an overhead Mandel track sprayer equipped with a […] nozzles calibrated to deliver 187 L/ha over an application area of 0.503 square meters at a spray height of 18 inches (43 cm) above the soil surface. Control plants were sprayed in the same manner with the solvent blank. The treated pots and control pots were placed in a greenhouse maintained with an approximate 15 hour photoperiod and temperatures of about 23-29° C. during the day and 22-28° C. during the night. Nutrients and water were added on a regular basis and supplemental lighting was provided with overhead metal halide 1000-watt lamps as necessary. The water was added by top-irrigation.

[5] = tested on: velvetleaf (Abutilon theophrasti); test: Preemergence herbicidal activity; type: in vivo; settings: pre-emergent, 140 g ai/ha, after 20-22 days
Source text: as §2

[6] = tested on: lambsquarter (Chenopodium album); test: Preemergence herbicidal activity; type: in vivo; settings: pre-emergent, 140 g ai/ha, after 20-22 days
Source text: as §2

Compound	melting point	pest or weed control at 140 g/ha [1]	pest or weed control at 140 g/ha [2]	pest or weed control at 140 g/ha [3]	% Control AMARE [4]	% Control ABUTH [5]	% Control CHEAL [6]
COC(=O)c1nc(-c2ccc(F)c(F)c2F)cc(NC(C)=O)c1Cl [Compound 33, 4-Acetylamino-3-chloro-6-(2,3,4-trifluorophenyl)pyridine-2-carboxylic acid, methyl ester]	169 to 171 °C	95%	95%	90%			
COC(=O)c1nc(-c2c(F)cc(Cl)c(OC)c2F)cc(NC(C)=O)c1Cl [Compound 40, 4-Acetylamino-3-chloro-6-(4-chloro-2,6-difluoro-3-methoxyphenyl)pyridine-2-carboxylic acid, methyl ester]	144 to 144.5 °C	95%	95%	100%			
COC(=O)c1nc(-c2ccc(F)c(C)c2F)cc(N)c1Cl [Compound 47, 4-Amino-3-chloro-6-(2,4-difluoro-3-methylphenyl)pyridine-2-carboxylic acid methyl ester]	129 to 130 °C	100%	100%	100%			
COC(=O)c1nc(-c2ccc(F)c(F)c2F)cc(N)c1Cl [Compound 67, 4-Amino-3-chloro-6-(2,3,4-trifluorophenyl)pyridine-2-carboxylic acid, methyl ester]	163 to 164 °C	100%	100%	100%			
COCOc1c(Cl)ccc(-c2cc(N)c(Cl)c(C(=O)OC)n2)c1F [Compound 68, 4-Amino-3-chloro-6-(4-chloro-2-fluoro-3-methoxymethoxyphenyl)pyridine-2-carboxylic acid, methyl ester]	99 °C	100%	95%	100%			
COC(=O)c1nc(-c2ccc(Cl)c(OC(F)F)c2F)cc(N)c1Cl [Compound 69, 4-Amino-3-chloro-6-(4-chloro-2-fluoro-3-difluoromethoxyphenyl)pyridine-2-carboxylic acid, methyl ester]	164 °C	100%	100%	100%			
COC(=O)c1nc(-c2ccc(C(F)F)c(OC)c2Cl)cc(N)c1Cl [Compound 79, 4-Amino-3-chloro-6-(2-chloro-4-difluoromethyl-3-methoxyphenyl)pyridine-2-carboxylic acid, methyl ester]	134 to 136 °C	90%	95%	100%			
CCOc1c(F)ccc(-c2cc(N)c(Cl)c(C(=O)OC)n2)c1F [Compound 80, 4-Amino-3-chloro-6-(2,4-difluoro-3-ethoxyphenyl)pyridine-2-carboxylic acid, methyl ester]	158 to 159 °C	100%	100%	95%			
COC(=O)c1nc(-c2ccc(Cl)c(C3CC3)c2F)cc(N)c1Cl [Compound 81, 4-Amino-3-chloro-6-(4-chloro-3-cyclopropyl-2-fluorophenyl)pyridine-2-carboxylic acid, methyl ester]	135 to 136.5 °C	100%	100%	95%			
Cc1c(Cl)ccc(-c2cc(N)c(Cl)c(C(=O)O)n2)c1Cl [Compound 98, 4-Amino-3-chloro-6-(2,4-dichloro-3-methylphenyl)pyridine-2-carboxylic acid]	170 to 172 °C (dec.)	70%	90%	80%			
Nc1cc(-c2ccc(Cl)c(C(F)F)c2F)nc(C(=O)O)c1Cl [Compound 106, 4-Amino-3-chloro-6-(4-chloro-2-fluoro-3-difluoromethylphenyl)pyridine-2-carboxylic acid]	182 to 183 °C (dec.)	100%	90%	90%			
COc1c(C(F)(F)F)ccc(-c2cc(N)c(Cl)c(C(=O)O)n2)c1F [Compound 107, 4-Amino-3-chloro-6-(2-fluoro-3-methoxy-4-trifluoromethylphenyl)pyridine-2-carboxylic acid]	177 to 178 °C (dec.)	80%	100%	90%			
CN(C)c1cc(-c2cc(N)c(Cl)c(C(=O)O)n2)c(F)cc1Cl [Compound 111, 4-Amino-3-chloro-6-(4-chloro-5-dimethyamino-2-fluorophenyl)pyridine-2-carboxylic acid]					100%	35%	100%
CN(C)c1c(Cl)ccc(-c2cc(N)c(Cl)c(C(=O)O)n2)c1Cl [Compound 117, 4-Amino-3-chloro-6-[2,4-dichloro-3-(dimethylamino)phenyl]pyridine-2-carboxylic acid]	177 to 178 °C	100%	100%	100%			
CNc1c(Cl)ccc(-c2cc(N)c(Cl)c(C(=O)O)n2)c1F [Compound 118, 4-Amino-3-chloro-6-[4-chloro-2-fluoro-3-(methylamino)phenyl]pyridine-2-carboxylic acid]	185 to 186 °C	100%	100%	100%			
COc1c(C)ccc(-c2cc(N)c(Cl)c(C(=O)O)n2)c1F [Compound 119, 4-Amino-3-chloro-6-(2-fluoro-3-methoxy-4-methylphenyl)pyridine-2-carboxylic acid]	178 to 179 °C	100%	100%	95%			
Nc1cc(-c2ccc(Cl)c(C(F)F)c2Cl)nc(C(=O)O)c1Cl [Compound 126, 4-Amino-3-chloro-6-(2,4-dichloro-3-difluoromethylphenyl)pyridine-2-carboxylic acid]	182 to 183 °C (dec.)	100%	90%	100%			
Nc1cc(-c2ccc(Cl)c(C(F)C(F)(F)F)c2F)nc(C(=O)O)c1Cl (stereo not shown) [Compound 129, 4-Amino-3-chloro-6-[4-chloro-2-fluoro-3-(1,2,2,2-tetrafluoroethyl)-phenyl)pyridine-2-carboxylic acid]	175 to 176 °C (dec.)	95%	85%	90%			
CCC(F)c1c(Cl)ccc(-c2cc(N)c(Cl)c(C(=O)OC)n2)c1F (stereo not shown) [Compound 130, 4-Amino-3-chloro-6-[4-chloro-2-fluoro-3-(1-fluoropropyl)phenyl]pyridine-2-carboxylic acid, methyl ester]	165 to 167 °C (dec.)	95%	80%	95%			
Nc1cc(-c2ccc(Cl)c(OC(F)F)c2F)nc(C(=O)O)c1Cl [Compound 134, 4-Amino-3-chloro-6-(4-chloro-3-difluoromethoxy-2-fluorophenyl)pyridine-2-carboxylic acid]	179 °C (dec.)	100%	95%	90%			
